Assay results: article PMC7917821, “In Vitro and In Silico Studies of Soluble Epoxide Hydrolase Inhibitors from the Roots of Lycopus lucidus” (Plants, 2021)
Read-outs that look alike come from different tables or passages of the source.

What was measured:
sEH [1] = molecular target: T1, sEH (Homo sapiens, UniProt P34913); test: sEH inhibitory activity assay (fluorometric, PHOME substrate); assay type: biochemical; details: for IC50: PHOME substrate, triplicate, mean ± SD; for inhibition at 100 µM: read-out: sEH inhibitory activity
T1 construct: purchased Cayman 10011669
T1 sequence (P34913 1-555): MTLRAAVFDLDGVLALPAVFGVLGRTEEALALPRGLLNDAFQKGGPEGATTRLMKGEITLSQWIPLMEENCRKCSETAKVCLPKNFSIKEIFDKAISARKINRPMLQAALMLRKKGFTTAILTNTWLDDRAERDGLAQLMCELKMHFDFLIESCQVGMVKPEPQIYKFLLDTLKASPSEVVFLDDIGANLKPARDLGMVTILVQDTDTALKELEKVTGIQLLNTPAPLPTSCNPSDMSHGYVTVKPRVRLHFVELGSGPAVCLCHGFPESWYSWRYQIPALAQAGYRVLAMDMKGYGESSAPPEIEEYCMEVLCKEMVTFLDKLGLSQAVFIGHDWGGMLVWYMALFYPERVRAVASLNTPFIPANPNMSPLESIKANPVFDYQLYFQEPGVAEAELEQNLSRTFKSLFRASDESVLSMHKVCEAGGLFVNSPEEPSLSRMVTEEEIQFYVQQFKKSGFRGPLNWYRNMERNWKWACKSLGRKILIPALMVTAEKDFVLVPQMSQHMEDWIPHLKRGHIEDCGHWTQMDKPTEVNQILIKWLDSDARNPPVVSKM
Protocol: The tests were conducted using a multi plate system of the fluorometric photometer at excitation and emission wavelengths of 330 and 465 nm, respectively. […] To identify potential inhibitors of sEH, all compounds were measured at 100 µM concentration.
(§1) The inhibitory activities on the sEH were measured according to the modified methods in previous papers. PHOME was used as a substrate to examine the inhibitions of sEH, which was determined using a hydrolysis reaction of PHOME. sEH was diluted in Bis Tris–HCl buffer (25 mM containing 0.1 mg/mL BSA, pH 7.0) at 12.15 ng/mL. In a 96-well plate, 130 μL of recombinant human sEH, 20 μL of sample, and 50 μL of 40 mM PHOME were added. The absorbance was measured at excitation filter 330 nm and emission filter 465 nm for 30 min at an interval of 30 s after adding the last solution in a 96-well plate. All assays were performed in triplicate, using microplate reader (Tecan infinite F200, Grödig, Austria). Inhibitory activity (%) was calculated using the following equation:(1) Inhibitory Activity (%)=100−[Δsample / Δcontrol]×100 where Δcontrol and Δsample are the changed fluorescence […], respectively.
The enzyme inhibition parameter IC50 was calculated by fitting hyperbola equations to the data using nonlinear regression of the plot using Sigma Plot (SPP Inc., Chicago, IL, USA.). The experimental results were performed in triplicate, and presented as the means ± SD.

sEH [2] = molecular target: T1, sEH; test: Enzyme kinetics on sEH (Lineweaver–Burk and Dixon plots); assay type: biochemical; details: for Ki: Dixon plot; for sEH inhibition Type: Lineweaver–Burk plots, various substrate concentrations
Protocol: The enzymatic kinetics of these compounds (7–10) were determined by calculating the initial velocity of each inhibitor at various substrate concentrations (0.19–5 mM) (Figure 2). […] This mixed type had bound to allosteric sites, a site different from the active site. In addition, the inhibitory constant values (Ki) were calculated using the Dixon plot revised from the Lineweaver–Burk plot.
as §1

sEH [3] = molecular target: T1, sEH; design: method as in PMID 26548595, PMID 32972033, doi:10.1039/C6RA04207D; details: earlier reports; cited from earlier work

Row | IC50 (sEH [1]) [µM] | inhibition at 100 µM (sEH [1]; at 100 µM concentration) [%] | Ki (sEH [2]) [µM] | sEH inhibition Type (sEH [2]) | inhibition at 100 µM (sEH [1]) [%] | SMILES | sEH inhibitory activity previously shown (sEH [3])
1 | 52 ± 1.9 | > 50 |  |  |  | COC(=O)[C@H](O)Cc1ccc(O)cc1 [Compound 6, latifolicinin C] | 
2 | 19.5 ± 4.1 | > 50 | 5.7 | mixed type inhibitor |  | COc1ccc(CCO[C@@H]2O[C@H](CO)[C@@H](OC(=O)/C=C/c3ccc(O)c(OC)c3)[C@H](O[C@@H]3O[C@@H](C)[C@H](O)[C@@H](O)[C@H]3O)[C@H]2O)cc1O [Compound 8, martynoside] | significant sEH inhibitory activity
3 | 16.8 ± 0.6 | > 50 | 9.2 | competitive inhibitors |  | COC(=O)[C@@H](Cc1ccc(O)c(O)c1)OC(=O)/C=C/c1ccc(O)c(O)c1 [Compound 7, methyl rosmarinate] | 
4 | 10.6 ± 3.2 | > 50 | 1.9 | competitive inhibitors |  | COC(=O)[C@@H](Cc1ccc(O)c(O)c1)OC(=O)/C=C/c1ccc(O)c2c1[C@H](C(=O)OC)[C@@H](c1ccc(O)c(O)c1)O2 [Compound 9, dimethyl lithospermate] | 
5 | 35.7 ± 2.1 | > 50 | 7.6 | competitive inhibitors |  | COC(=O)[C@H]1c2c(/C=C/C(=O)O[C@H](Cc3ccc(O)c(O)c3)C(=O)O)ccc(O)c2O[C@@H]1c1ccc(O)c(O)c1 [Compound 10, 9″″-methyl lithospermate] | 
6 | 67.8 ± 3.2 |  |  |  | > 50 | C=C(C)[C@@H]1CC[C@]2(C(=O)O)CC[C@]3(C)[C@H](CC[C@@H]4[C@@]5(C)CC[C@H](O)C(C)(C)[C@@H]5CC[C@]43C)[C@@H]12 [Compound 1, betulinic acid] | significant sEH inhibitory activity
7 | 42.1 ± 4 | > 50 |  |  |  | C[C@H]1[C@H](C)CC[C@]2(C(=O)O)CC[C@]3(C)C(=CC[C@@H]4[C@@]5(C)CC[C@H](O)C(C)(C)[C@@H]5CC[C@]43C)[C@H]12 [Compound 3, ursolic acid] | significant sEH inhibitory activity
